Results reported in ChEMBL document CHEMBL5154806, “Synthesis and Profiling of Highly Selective Inhibitors of Methyltransferase DOT1L Based on Carbocyclic C-Nucleosides” (J Med Chem, 2022).
Active and inactive are the calls of the source. The rule behind the calls is not given here.

What was measured:
[1] = biological target: T1, Histone-lysine N-methyltransferase, H3 lysine-79 specific (Homo sapiens, UniProt Q8TEK3); assay: Inhibition of human DOT1L by hotspot PMT activity assay
Target sequence in this assay (Q8TEK3 whole entry): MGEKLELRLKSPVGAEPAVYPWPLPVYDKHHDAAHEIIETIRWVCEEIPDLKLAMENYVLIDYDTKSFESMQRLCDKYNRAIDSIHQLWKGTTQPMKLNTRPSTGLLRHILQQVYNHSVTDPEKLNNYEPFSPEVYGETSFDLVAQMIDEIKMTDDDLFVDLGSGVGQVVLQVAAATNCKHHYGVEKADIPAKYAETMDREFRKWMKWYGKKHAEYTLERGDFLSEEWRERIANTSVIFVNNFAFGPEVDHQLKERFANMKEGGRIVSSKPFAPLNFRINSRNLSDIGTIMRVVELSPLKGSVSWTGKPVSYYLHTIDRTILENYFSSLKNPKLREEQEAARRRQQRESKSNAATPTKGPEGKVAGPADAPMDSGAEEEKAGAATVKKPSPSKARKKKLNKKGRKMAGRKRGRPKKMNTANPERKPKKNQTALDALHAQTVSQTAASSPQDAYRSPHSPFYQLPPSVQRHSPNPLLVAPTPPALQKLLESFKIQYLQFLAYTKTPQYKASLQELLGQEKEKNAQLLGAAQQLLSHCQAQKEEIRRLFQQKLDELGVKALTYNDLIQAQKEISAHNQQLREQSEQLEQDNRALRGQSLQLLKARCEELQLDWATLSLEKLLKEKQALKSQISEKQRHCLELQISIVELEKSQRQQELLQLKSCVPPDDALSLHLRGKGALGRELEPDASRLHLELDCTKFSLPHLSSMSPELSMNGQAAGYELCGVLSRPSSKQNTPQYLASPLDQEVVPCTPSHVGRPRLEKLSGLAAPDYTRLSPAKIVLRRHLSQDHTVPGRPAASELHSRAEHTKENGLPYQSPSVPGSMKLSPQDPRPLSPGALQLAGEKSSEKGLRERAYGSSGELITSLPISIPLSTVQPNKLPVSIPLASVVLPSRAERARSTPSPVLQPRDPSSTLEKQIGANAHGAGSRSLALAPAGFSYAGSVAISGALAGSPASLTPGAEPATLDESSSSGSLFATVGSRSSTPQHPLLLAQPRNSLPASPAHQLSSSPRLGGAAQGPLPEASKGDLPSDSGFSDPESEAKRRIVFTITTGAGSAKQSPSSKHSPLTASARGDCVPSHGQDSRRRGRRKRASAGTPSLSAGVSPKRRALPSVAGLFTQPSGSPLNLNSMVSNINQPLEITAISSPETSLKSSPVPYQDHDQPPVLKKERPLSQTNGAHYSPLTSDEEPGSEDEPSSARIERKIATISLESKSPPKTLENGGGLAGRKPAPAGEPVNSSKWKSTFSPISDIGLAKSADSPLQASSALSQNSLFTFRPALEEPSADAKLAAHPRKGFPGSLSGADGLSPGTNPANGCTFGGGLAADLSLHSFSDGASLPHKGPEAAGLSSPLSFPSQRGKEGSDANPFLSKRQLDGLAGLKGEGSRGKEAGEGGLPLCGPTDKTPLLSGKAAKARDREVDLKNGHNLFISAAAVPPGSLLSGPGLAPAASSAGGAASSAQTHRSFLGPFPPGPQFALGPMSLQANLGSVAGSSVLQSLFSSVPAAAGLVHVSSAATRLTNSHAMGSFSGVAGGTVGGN

[2] = Half life in fasted BALB/c mouse at 20 mg/kg, iv administered upto 600 mins by HPLC-MS/MS analysis; type: ADME, organism-based; details: in vivo
[3] = Cmax in fasted BALB/c mouse at 20 mg/kg, iv administered upto 600 mins by HPLC-MS/MS analysis; type: ADME, organism-based; parameters: time < 600 min, dose 20 mg/kg, route iv; details: in vivo
[4] = AUC (0 to t) in fasted BALB/c mouse at 20 mg/kg, iv administered upto 600 mins by HPLC-MS/MS analysis; type: ADME, organism-based; parameters: dose 20 mg/kg, time < 600 min, route iv; details: in vivo
[5] = Elimination rate constant in fasted BALB/c mouse at 20 mg/kg, po administered upto 600 mins by HPLC-MS/MS analysis; type: ADME, organism-based; details: in vivo
[6] = Bioavailability in fasted BALB/c mouse at 20 mg/kg, iv administered upto 600 mins by HPLC-MS/MS analysis; type: ADME, organism-based; details: in vivo
[7] = Clearance in fasted BALB/c mouse at 20 mg/kg, iv administered upto 600 mins by HPLC-MS/MS analysis; type: ADME, organism-based; details: in vivo
[8] = Tmax in fasted BALB/c mouse at 20 mg/kg, iv administered upto 600 mins by HPLC-MS/MS analysis; type: ADME, organism-based; details: in vivo
[9] = AUC (0 to infinity) in fasted BALB/c mouse at 20 mg/kg, po administered upto 600 mins by HPLC-MS/MS analysis; type: ADME, organism-based; parameters: dose 20 mg/kg, time < 600 min, route po; details: in vivo
[10] = Elimination rate constant in fasted BALB/c mouse at 20 mg/kg, iv administered upto 600 mins by HPLC-MS/MS analysis; type: ADME, organism-based; details: in vivo
[11] = Cmax in fasted BALB/c mouse at 20 mg/kg, po administered upto 600 mins by HPLC-MS/MS analysis; type: ADME, organism-based; parameters: time < 600 min, dose 20 mg/kg, route po; details: in vivo
[12] = Half life in fasted BALB/c mouse at 20 mg/kg, po administered upto 600 mins by HPLC-MS/MS analysis; type: ADME, organism-based; details: in vivo
[13] = AUC (0 to infinity) in fasted BALB/c mouse at 20 mg/kg, iv administered upto 600 mins by HPLC-MS/MS analysis; type: ADME, organism-based; parameters: dose 20 mg/kg, time < 600 min, route iv; details: in vivo
[14] = Volume of distribution in fasted BALB/c mouse at 20 mg/kg, iv administered upto 600 mins by HPLC-MS/MS analysis; type: ADME, organism-based; details: in vivo
[15] = Tmax in fasted BALB/c mouse at 20 mg/kg, po administered upto 600 mins by HPLC-MS/MS analysis; type: ADME, organism-based; details: in vivo
[16] = AUC (0 to t) in fasted BALB/c mouse at 20 mg/kg, po administered upto 600 mins by HPLC-MS/MS analysis; type: ADME, organism-based; parameters: dose 20 mg/kg, time < 600 min, route po; details: in vivo
[17] = biological target: T1, Histone-lysine N-methyltransferase, H3 lysine-79 specific; assay: Binding affinity to human DOT1L assessed as binding free energy difference
Target sequence in this assay (Q8TEK3 whole entry, looked up): as the sequence (Q8TEK3 whole entry) above

[18] = Clearance in fasted BALB/c mouse at 5 mg/kg, iv administered upto 600 mins by HPLC-MS/MS analysis; type: ADME, organism-based; details: in vivo
OCI-AML-3 [19] = assay: Cytotoxicity against human OCI-AML-3 cells assessed as reduction of cell viability at 1 to 40 uM incubated for 5 to 15 days by DiOC6/ propidium staining based flow cytometry analysis; type: functional; details: dose 1-40 µM, time 5-15 day
[20] = biological target: T1, Histone-lysine N-methyltransferase, H3 lysine-79 specific; assay: Inhibition of DOT1L in human SU-DHL-4 cells assessed as decrease in H3K79 methylation at 1 to 10 uM using histone H3 as substrate incubated for 3 days by immunoblotting assay; type: cell-based; details: dose 1-10 µM, time 3.0 day, DDE = dose-dependent effect
Target sequence in this assay (Q8TEK3 whole entry, looked up): as the sequence (Q8TEK3 whole entry) above

[21] = AUC (0 to t) in fasted BALB/c mouse at 5 mg/kg, iv administered upto 600 mins by HPLC-MS/MS analysis; type: ADME, organism-based; parameters: time < 600 min, dose 5 mg/kg, route iv; details: in vivo
[22] = Tmax in fasted BALB/c mouse at 5 mg/kg, iv administered upto 600 mins by HPLC-MS/MS analysis; type: ADME, organism-based; details: in vivo
[23] = biological target: T1, Histone-lysine N-methyltransferase, H3 lysine-79 specific; assay: Inhibition of DOT1L in human OCI-AML5 cells assessed as decrease in H3K79 methylation at 1 to 10 uM using histone H3 as substrate incubated for 5 days by immunoblotting assay; type: cell-based; details: dose 1-10 µM, time 5.0 day, DDE = dose-dependent effect
Target sequence in this assay (Q8TEK3 whole entry, looked up): as the sequence (Q8TEK3 whole entry) above

[24] = Cmax in fasted BALB/c mouse at 5 mg/kg, iv administered upto 600 mins by HPLC-MS/MS analysis; type: ADME, organism-based; parameters: time < 600 min, dose 5 mg/kg, route iv; details: in vivo
[25] = biological target: T1, Histone-lysine N-methyltransferase, H3 lysine-79 specific; assay: Inhibition of DOT1L in human MOLM-13 cells assessed as decrease in H3K79 methylation at 1 to 10 uM using histone H3 as substrate incubated for 3 days by immunoblotting assay; type: cell-based; details: dose 1-10 µM, time 3.0 day, DDE = dose-dependent effect
Target sequence in this assay (Q8TEK3 whole entry, looked up): as the sequence (Q8TEK3 whole entry) above

[26] = biological target: T1, Histone-lysine N-methyltransferase, H3 lysine-79 specific; assay: Inhibition of DOT1L in human OCI-AML5 cells assessed as decrease in H3K79 methylation at 1 to 10 uM using histone H3 as substrate incubated for 3 days by immunoblotting assay; type: cell-based; details: dose 1-10 µM, time 3.0 day, DDE = dose-dependent effect
Target sequence in this assay (Q8TEK3 whole entry, looked up): as the sequence (Q8TEK3 whole entry) above

[27] = biological target: T1, Histone-lysine N-methyltransferase, H3 lysine-79 specific; assay: Inhibition of DOT1L in human SU-DHL-4 cells assessed as decrease in H3K79 methylation at 1 to 10 uM using histone H3 as substrate incubated for 5 days by immunoblotting assay; type: cell-based; details: dose 1-10 µM, time 5.0 day, DDE = dose-dependent effect
Target sequence in this assay (Q8TEK3 whole entry, looked up): as the sequence (Q8TEK3 whole entry) above

[28] = Half life in fasted BALB/c mouse at 5 mg/kg, iv administered upto 600 mins by HPLC-MS/MS analysis; type: ADME, organism-based; details: in vivo, iv, 5 mg/kg, 10 h
MOLM-13 [29] = assay: Cytotoxicity against human MOLM-13 cells assessed as metabolic activity at 1 to 40 uM incubated for 5 to 15 days by WST-1 assay; type: functional, cell-based; details: dose 1-40 µM, time 5-15 day
MOLM-13 [30] = assay: Cytotoxicity against human MOLM-13 cells assessed as reduction of cell viability at 1 to 40 uM incubated for 5 to 15 days by DiOC6/ propidium staining based flow cytometry analysis; type: functional; details: dose 1-40 µM, time 5-15 day
OCI-AML-3 [31] = assay: Cytotoxicity against human OCI-AML-3 cells assessed as reduction of cell viability at 1 to 40 uM incubated for 5 to 15 days by WST-1 assay; type: functional, cell-based; details: dose 1-40 µM, time 5-15 day
[32] = Acute toxicity in BALB/c mouse assessed as respiratory failure at 5 mg/kg,iv measured after 6 to 7 mins; type: organism-based; details: in vivo, time 6-7 min
[33] = Acute toxicity in BALB/c mouse assessed as death at 10 to 20 mg/kg,iv; type: organism-based; details: in vivo, dose 10-20 mg/kg
[34] = AUC (0 to infinity) in fasted BALB/c mouse at 5 mg/kg, iv administered upto 600 mins by HPLC-MS/MS analysis; type: ADME, organism-based; parameters: dose 5 mg/kg, time < 600 min, route iv; details: in vivo
[35] = Elimination rate constant in fasted BALB/c mouse at 5 mg/kg, iv administered upto 600 mins by HPLC-MS/MS analysis; type: ADME, organism-based; details: in vivo, iv, 5 mg/kg, 10 h
[36] = Acute toxicity in BALB/c mouse at 10 to 20 mg/kg,iv; type: organism-based; details: in vivo, dose 10-20 mg/kg
[37] = Acute toxicity in BALB/c mouse assessed as mild tremor at 5 mg/kg,iv measured after 6 to 7 mins; type: organism-based; details: in vivo, time 6-7 min
[38] = biological target: T1, Histone-lysine N-methyltransferase, H3 lysine-79 specific; assay: Inhibition of DOT1L in human MOLM-13 cells assessed as decrease in H3K79 methylation at 1 to 10 uM using histone H3 as substrate incubated for 5 days by immunoblotting assay; type: cell-based; details: dose 1-10 µM, time 5.0 day, DDE = dose-dependent effect
[39] = Volume of distribution in fasted BALB/c mouse at 5 mg/kg, iv administered upto 600 mins by HPLC-MS/MS analysis; type: ADME, organism-based; details: in vivo

CC(C)N(C[C@@H]1C[C@H](c2ccc3c(N)ncnn23)[C@@H](O)[C@H]1O)[C@H]1C[C@@H](CCc2nc3cc(C(C)(C)C)ccc3[nH]2)C1
IC50 [1]: 80 nM

CC(C)NC[C@H]1C[C@@H](c2ccc3c(N)ncnn23)[C@H](O)[C@@H]1O
half-life [2]: 115 min
Cmax [3]: 40800 ng/mL
AUC(0-t) at 10 h [4]: 14200 ng·h/mL
k el at 10 h [5]: 0.000257 s⁻¹
bioavailability [6]: 9%
clearance [7]: 23.3 mL/min/kg
Tmax [8]: 5 min
AUC(0-inf) [9]: 1300 ng·h/mL
k el at 10 h [10]: 0.0001 s⁻¹
Cmax [11]: 561 ng/mL
half-life [12]: 44.9 min
AUC(0-inf) [13]: 14200 ng·h/mL
Vd [14]: 3.88 L/kg
Tmax [15]: 120 min
AUC(0-t) at 10 h [16]: 1200 ng·h/mL

CC(C)N(CCCNC(=O)NC12CC3CC(CC(C3)C1)C2)C[C@H]1C[C@@H](c2ccc3c(N)ncnn23)[C@H](O)[C@@H]1O
IC50 [1]: > 10000 nM

CN(CCCNC(=O)Nc1ccc(C(C)(C)C)cc1)C[C@H]1C[C@@H](c2ccc3c(N)ncnn23)[C@H](O)[C@@H]1O (stereo in doubt; (-)-25)
half-life [2]: 118 min
Cmax [3]: 8320 ng/mL
AUC(0-t) at 10 h [4]: 3020 ng·h/mL
k el at 10 h [5]: 0.0017 s⁻¹
bioavailability [6]: 0.3%
clearance [7]: 108 mL/min/kg
Tmax [8]: 5 min
AUC(0-inf) [9]: 8.53 ng·h/mL
k el at 10 h [10]: 9.82e-05 s⁻¹
Cmax [11]: 36.4 ng/mL
half-life [12]: 6.78 min
AUC(0-inf) [13]: 3080 ng·h/mL
Vd [14]: 18.4 L/kg
Tmax [15]: 5 min
IC50 [1]: 19 nM
AUC(0-t) at 10 h [16]: 8.07 ng·h/mL

CN(CCCNC(=O)Nc1ccccc1)C[C@H]1C[C@@H](c2cnn3c(N)ccnc23)[C@H](O)[C@@H]1O
deltaG [17]: 2.63 kcal/mol

CC(C)N(C[C@H]1O[C@@H](n2cnc3c(N)ncnc32)[C@H](O)[C@@H]1O)[C@H]1C[C@@H](CCc2nc3cc(C(C)(C)C)ccc3[nH]2)C1 [PINOMETOSTAT]
clearance [18]: 17.1 mL/min/kg
Activity (OCI-AML-3 [19]): Active
Activity [20]: Dde
AUC(0-t) at 10 h [21]: 4830 ng·h/mL
Tmax [22]: 5 min
Cmax [11]: 15.9 ng/mL
Activity [23]: Dde
Cmax [24]: 13900 ng/mL
Activity [25]: Dde
Activity [26]: Dde
Activity [27]: Dde
t1/2 [28]: 43.2 min
Activity (MOLM-13 [29]): Active
Activity (MOLM-13 [30]): Active
Activity (OCI-AML-3 [31]): Active
Tmax [15]: 5 min
Activity [32]: Toxic
Activity [33]: Toxic
AUC(0-inf) [34]: 4870 ng·h/mL
Kel [35]: 0.00161 min⁻¹
Activity [36]: Toxic
AUC(0-t) at 10 h [16]: 0.662 ng·h/mL
Activity [37]: Toxic
Activity [38]: Dde
Vd [39]: 1.07 L/kg

CN(CCCNC(=O)Nc1ccc(C(C)(C)C)cc1)C[C@H]1C[C@@H](c2ccc3c(N)ncnn23)[C@H](O)[C@@H]1O (stereo in doubt; (+)-25)
IC50 [1]: 7410 nM

CN(CCCNC(=O)Nc1ccccc1)C[C@H]1C[C@@H](c2ccc3c(N)ncnn23)[C@H](O)[C@@H]1O
IC50 [1]: 369 nM

Nc1ncnn2c([C@@H]3C[C@H](CO)[C@@H](O)[C@H]3O)ccc12
IC50 [1]: > 10000 nM
